Type in all cases: functional
The subject of one assay is NCI/ADR-RES. Description: Concentration causing 50% inhibition of cancer cell growth against human breast MCF-7/ADR cell line.
The next assay concerns A498. Put plainly: Concentration causing 50% inhibition of cancer cell growth against human renal A498 cell line.
For the next assay, the system named is DU-145. Description: Concentration causing 50% inhibition of cancer cell growth against human prostate DU145 cell line.
Another assay relates to NCI-H522. Description: Concentration causing 50% inhibition of cancer cell growth against human lung H522 cell line.
The subject of a further assay is SW-620. Description: Concentration causing 50% inhibition of cancer cell growth against human colon SW620 cell line.
The next assay deals with U-251. Put plainly: Concentration causing 50% inhibition of cancer cell growth against human CNS U251 cell line.
The next assay concerns SK-OV-3. Put plainly: Concentration causing 50% inhibition of cancer cell growth against human ovarian SKOV3 cell line.

Here are results for 24 compounds from ChEMBL document CHEMBL1137838, “Synthesis and structure-activity relationships of andrographolide analogues as novel cytotoxic agents” (2004).

Structures are written as SMILES. A value given as a limit tells only on which side of the number the result lay.

Turning to `CC(=O)OC[C@@]1(C)[C@H]2CC[C@@]3(CO3)[C@@H](C/C=C3/C(=O)OC[C@H]3OC(=O)CNC(=O)OC(C)(C)C)[C@]2(C)CC[C@H]1OC(C)=O`, the IG50 in the assay with NCI/ADR-RES is 4 µM; in the assay on A498, 20 µM; in the assay on DU-145 it was 7 µM; with NCI-H522, 4 µM; in the assay with SW-620, 3 µM; with U-251, 4 µM. The IG50 in the assay with SK-OV-3 was determined as 8 µM.
For `C=C1CC[C@@H]2[C@](C)(CO)[C@H](O)CC[C@@]2(C)[C@@H]1CCC1C(=O)OC[C@H]1O` (stereo partly drawn), the IG50 in the assay on DU-145 was 2 µM; with NCI-H522, greater than 100 µM; with SW-620 it was greater than 100 µM; in the assay on U-251, 85 µM; in the assay with SK-OV-3, greater than 100 µM.
Consider `CC(=O)OC[C@@]1(C)[C@H]2CC[C@@H](CO)[C@@H](C/C=C3/C(=O)OC[C@H]3OC(C)=O)[C@]2(C)CC[C@H]1OC(C)=O`, for which the IG50 in the assay with DU-145 was 2 µM; with NCI-H522 it was 19 µM; in the assay with SW-620 it was 7 µM; with U-251 it was 19 µM; with SK-OV-3, 3 µM.
For the compound `CC(C)(C)OC(=O)NCC(=O)O[C@@H]1COC(=O)/C1=C/C[C@@H]1[C@@]2(CC[C@@H]3[C@](C)(CO)[C@H](O)CC[C@]31C)CO2`, the IG50 in the assay with NCI/ADR-RES was 7 µM; in the assay on A498 it was 5 µM; with DU-145 it was 20 µM; with NCI-H522, greater than 100 µM; in the assay with SW-620, 40 µM; in the assay with U-251, 40 µM. This compound displayed an IG50 in the assay with SK-OV-3 of 6 µM.
`CC(=O)OC[C@@]1(C)[C@H]2CC[C@@]3(CO3)[C@@H](C/C=C3/C(=O)OC[C@H]3O)[C@]2(C)CC[C@H]1OC(C)=O`: the IG50 is 30 µM with NCI/ADR-RES; 20 µM in the assay with A498; 20 µM in the assay on SW-620; 40 µM in the assay on U-251; greater than 100 µM with SK-OV-3.
For the compound `C[C@]1(CO)[C@H]2CC[C@@]3(CO3)[C@@H](C/C=C3/C(=O)OC[C@H]3O)[C@]2(C)CC[C@H]1O`, the IG50 in the assay with NCI/ADR-RES came to 20 µM; with A498, 30 µM; in the assay with DU-145 it was 20 µM; in the assay with NCI-H522, 30 µM; in the assay on SW-620, 30 µM; in the assay on U-251, 16 µM. For the same compound, the IG50 with SK-OV-3 stood at 4 µM.
As for `CCC(=O)OC[C@@]1(C)[C@H]2CC[C@@]3(CO3)[C@@H](C/C=C3/C(=O)OC[C@H]3OC(=O)CC)[C@]2(C)CC[C@H]1OC(=O)CC`, the IG50 in the assay on DU-145 was found to be 3 µM; in the assay with NCI-H522, 3 µM; in the assay with SW-620, 2 µM; with U-251, 3 µM; in the assay with SK-OV-3, 1.36 µM.
As for `C=C1CC[C@@H]2[C@](C)(CO)[C@H](O)CC[C@@]2(C)[C@@H]1C/C=C(/C(=O)O)[C@H](O)CO`, the IG50 in the assay on NCI/ADR-RES was 30 µM; in the assay with A498, 4 µM; with DU-145 it was greater than 100 µM; in the assay on NCI-H522 it was 80 µM; in the assay on SW-620 it was greater than 100 µM; with U-251, greater than 100 µM. Moreover, the IG50 in the assay on SK-OV-3 is greater than 100 µM.
As for `CC(=O)OC[C@@]1(C)[C@H]2CC[C@@H](C=O)[C@@H](C/C=C3/C(=O)OC[C@H]3OC(C)=O)[C@]2(C)CC[C@H]1OC(C)=O`, the IG50 in the assay on DU-145 turned out to be 12 µM; in the assay on NCI-H522 it was 34 µM; in the assay with SW-620, 32 µM; in the assay with U-251, 62 µM; with SK-OV-3, 3 µM.
Consider `CCC(=O)OC[C@@]1(C)[C@H]2CC[C@@]3(CO3)[C@@H](C/C=C3/C(=O)OC[C@H]3OC(=O)/C=C/c3ccc4c(c3)OCO4)[C@]2(C)CC[C@H]1OC(=O)CC`, for which the IG50 in the assay with NCI/ADR-RES was found to be 20 µM; in the assay with A498, 6 µM; in the assay on DU-145 it was 4 µM; in the assay with NCI-H522, 3 µM; in the assay on SW-620, 65 µM; in the assay on U-251, 35 µM. The compound further registered an IG50 in the assay with SK-OV-3 of 0.3 µM.
Turning to `CC(=O)O[C@@H]1CC[C@]2(C)[C@H](CC[C@@]3(CO3)[C@H]2C/C=C2/C(=O)OC[C@H]2O)[C@]1(C)CO`, the IG50 in the assay with NCI/ADR-RES is 20 µM; with A498, 20 µM; in the assay on DU-145, 50 µM; in the assay with NCI-H522, 60 µM; with SW-620, greater than 100 µM; in the assay with U-251, 45 µM. The compound further had an IG50 in the assay with SK-OV-3 of 50 µM.
Take `C=C1CC[C@@H]2[C@](C)(CO)[C@H](O)CC[C@@]2(C)[C@@H]1/C=C/C1=CCOC1=O`: the IG50 was greater than 100 µM with NCI/ADR-RES; 2 µM in the assay on DU-145; greater than 100 µM in the assay with NCI-H522; greater than 100 µM with SW-620; 81 µM with U-251.
Regarding `C[C@]1(CO)[C@H]2CC[C@@]3(CO3)[C@@H](C/C=C3/C(=O)OC[C@H]3OC(=O)/C=C/c3ccccc3)[C@]2(C)CC[C@H]1O`, the IG50 in the assay with NCI/ADR-RES was found to be 2 µM; with A498, 9 µM; with DU-145, 5.5 µM; in the assay on NCI-H522, 6 µM; in the assay on SW-620, 0.5 µM; in the assay with U-251 it was 6 µM. For the same compound, the IG50 in the assay with SK-OV-3 worked out at 4 µM.
Consider `CC(=O)O[C@@H]1COC(=O)/C1=C/C[C@@H]1[C@@]2(CC[C@@H]3[C@](C)(CO)[C@H](O)CC[C@]31C)CO2`, for which the IG50 turned out to be 20 µM in the assay on NCI/ADR-RES; 7 µM in the assay with A498; 25 µM in the assay on DU-145; 25 µM in the assay with NCI-H522; 20 µM in the assay on SW-620; 50 µM with U-251. In the assay on SK-OV-3, this compound had an IG50 of 5 µM.
Take `C=C1CC[C@@H]2[C@](C)(CO)[C@H](O)CC[C@@]2(C)[C@@H]1C/C=C1/C(=O)OC[C@H]1O` [ANDROGRAPHOLIDE]: the IG50 in the assay on NCI/ADR-RES was 15 µM; with A498, 30 µM; with DU-145, 20 µM; in the assay on NCI-H522 it was 17 µM; in the assay with SW-620, 10 µM; with U-251, 3 µM. The compound further registered an IG50 with SK-OV-3 of 15 µM.
`CC(=O)OC[C@@]1(C)[C@H]2CCC3=COC(C4=CCOC4=O)C[C@H]3[C@]2(C)CC[C@H]1OC(C)=O` (stereo partly drawn): the IG50 with NCI/ADR-RES worked out at 40 µM; in the assay with DU-145, 40 µM; in the assay with NCI-H522, 50 µM; with SW-620, 40 µM; with U-251 it was 30 µM; with SK-OV-3 it was 40 µM.
In the case of `CCC(=O)OC[C@@]1(C)[C@H]2CC[C@@]3(CO3)[C@@H](C/C=C3/C(=O)OC[C@H]3OC(=O)/C=C/c3ccc(OC)c(OC)c3)[C@]2(C)CC[C@H]1OC(=O)CC`, the IG50 turned out to be 1.5 µM with NCI/ADR-RES; 3.5 µM in the assay on A498; 2.5 µM in the assay on DU-145; 7.5 µM in the assay on NCI-H522; 0.4 µM in the assay with SW-620; 2 µM in the assay on U-251. Moreover, in the assay with SK-OV-3, the IG50 came to 2.5 µM.
On to `CCC(=O)OC[C@@]1(C)[C@H]2CC[C@@]3(CO3)[C@@H](C/C=C3/C(=O)OC[C@H]3OC(=O)/C=C/c3ccc(OC)cc3)[C@]2(C)CC[C@H]1OC(=O)CC`, for which the IG50 is 3 µM with NCI/ADR-RES; 3 µM in the assay with A498; 2 µM with DU-145; 4.8 µM in the assay with NCI-H522; 0.6 µM in the assay on SW-620; 3 µM in the assay with U-251. For the same compound, the IG50 in the assay on SK-OV-3 stood at 2 µM.
As to `CC(=O)OC[C@@]1(C)[C@H]2CC[C@@]3(CO3)[C@@H](C/C=C3/C(=O)OC[C@H]3OC(C)=O)[C@]2(C)CC[C@H]1OC(C)=O`, the IG50 with NCI/ADR-RES worked out at 5 µM; with A498 it was 0.25 µM; with DU-145, 15 µM; with NCI-H522, 15 µM; in the assay with SW-620, 1 µM; in the assay with U-251 it was 2.5 µM. In the assay with SK-OV-3, this compound had an IG50 of 25 µM.
On to `C=C1CC[C@@H]2[C@](C)(CO)[C@H](O)CC[C@@]2(C)[C@@H]1CCC1=CCOC1=O` [DEOXYANDROGRAPHOLIDE], for which the IG50 was 5 µM with DU-145; greater than 100 µM with NCI-H522; 54 µM in the assay on SW-620; greater than 100 µM in the assay with U-251; 0.18 µM in the assay with SK-OV-3.
Consider `CCC(=O)OC[C@@]1(C)[C@H]2CC[C@@]3(CO3)[C@@H](C/C=C3/C(=O)OC[C@H]3OC(=O)/C=C/c3ccccc3)[C@]2(C)CC[C@H]1OC(=O)CC`, for which the IG50 turned out to be 0.08 µM with NCI/ADR-RES; 3 µM in the assay on A498; 4 µM with DU-145; 20 µM in the assay with NCI-H522; 2.5 µM in the assay with SW-620; 6 µM in the assay on U-251. Moreover, the IG50 in the assay with SK-OV-3 was determined as 10 µM.
On to `CCC(=O)O[C@@H]1COC(=O)/C1=C/C[C@@H]1[C@@]2(CC[C@@H]3[C@](C)(CO)[C@H](OC(=O)CC)CC[C@]31C)CO2`, for which the IG50 in the assay with NCI/ADR-RES turned out to be 30 µM; in the assay with A498 it was 40 µM; with DU-145 it was 20 µM; with NCI-H522, 40 µM; in the assay on SW-620 it was 7 µM; with U-251, 35 µM. This compound had an IG50 in the assay with SK-OV-3 of 3 µM.
As to `CCC(=O)OC[C@@]1(C)[C@H]2CC[C@@]3(CO3)[C@@H](C/C=C3/C(=O)OC[C@H]3OC(=O)CNC(=O)OC(C)(C)C)[C@]2(C)CC[C@H]1OC(=O)CC`, the IG50 stood at 15 µM in the assay on NCI/ADR-RES; 4 µM in the assay with A498; 20 µM with DU-145; 4 µM in the assay on NCI-H522; 30 µM in the assay on SW-620; 20 µM with U-251. Further, the IG50 in the assay on SK-OV-3 was 15 µM.
For `CC(=O)O[C@@H]1COC(=O)/C1=C/C[C@@H]1[C@@]2(CC[C@@H]3[C@](C)(CO)[C@H](OC(C)=O)CC[C@]31C)CO2`, the IG50 turned out to be 20 µM in the assay with NCI/ADR-RES; 6 µM in the assay on A498; 6.5 µM in the assay on DU-145; 30 µM in the assay with NCI-H522; 55 µM in the assay with SW-620; 30 µM in the assay with U-251. In the assay with SK-OV-3, the IG50 was 2.5 µM.
